The values that follow are results of earlier work, collected in PMC3986712, “Diclofenac Salts. V. Examples of Polymorphism among Diclofenac Salts with Alkyl-hydroxy Amines Studied by DSC and HSM” (Pharmaceutics, 2010).

A word on the pKa: it is the pH at which an ionisable group is half protonated.

For this series the following is noted: free base (counterion), no reference given.

Consider `NC(CO)(CO)CO` [TRIS base, Tris-methylol aminomethane], for which the pKa is recorded as 7.76.
